Measurements as given in paper PMC8130611 (ACS infectious diseases, 2021).
Entries after “also recorded” stand apart in the source; their conditions may differ.

How the values were obtained:
[1] = target: TNF-R1–TNF-α interaction (Homo sapiens, UniProt P01375+P19438); test: cell-free ELISA-type counter-assay, inhibition of TNF-R1–TNF-α interaction; format: binding
[2] = target: SARS-CoV-2-S-RBD–hACE2 PPI (Severe acute respiratory syndrome coronavirus 2, UniProt P0DTC2); format: binding, human; details: for IC50: read-out: IC50, inhibition of SARS-CoV-2-RBD binding to hACE2
[3] = tested on: BacMam-based pseudovirus bearing the SARS-CoV-2 S protein; format: cell-based
[4] = tested on: SARS-CoV; details: cited from earlier work
[5] = tested on: THP-1 human cells; details: concentrations of up to 200 μM; ref [61], [62]; cited from earlier work
[6] = tested on: HEK293T cells

Sequence of TNF-R1–TNF-α interaction (P19438 30-211): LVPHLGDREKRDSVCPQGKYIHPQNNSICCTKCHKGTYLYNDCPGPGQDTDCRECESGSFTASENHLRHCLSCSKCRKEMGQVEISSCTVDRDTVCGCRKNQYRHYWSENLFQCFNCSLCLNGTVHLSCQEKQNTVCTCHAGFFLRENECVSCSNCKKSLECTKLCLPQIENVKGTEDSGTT
Sequence of TNF-R1–TNF-α interaction (P01375 85-233): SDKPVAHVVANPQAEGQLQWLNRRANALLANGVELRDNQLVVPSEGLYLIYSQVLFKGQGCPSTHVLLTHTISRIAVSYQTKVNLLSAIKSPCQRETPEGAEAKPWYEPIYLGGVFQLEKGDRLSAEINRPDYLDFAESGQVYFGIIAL

Compound: Nc1c(/N=N/c2ccc(-c3ccc(/N=N/c4cc(S(=O)(=O)O)c5ccccc5c4N)cc3)cc2)cc(S(=O)(=O)O)c2ccccc12 [Congo red]
- IC50 [1]: 6 µM

Compound: CN(C)c1ccc2nc3ccc(=[N+](C)C)cc-3sc2c1 [methylene blue]
- activity in screening for inhibitors of SARS-CoV-2 RBD binding [2]: promising inhibitory activity

Compound: CCN(CCO)CCCC(C)Nc1ccnc2cc(Cl)ccc12 (stereo not shown) [hydroxychloroquine]
- inhibition of pseudovirus entry (BacMam), in words [3]: did not show any significant inhibition; also recorded: no effect

Compound: Cc1ccc(C(=O)Nc2ccc(S(=O)(=O)O)c3cc(S(=O)(=O)O)cc(S(=O)(=O)O)c23)cc1NC(=O)c1cccc(NC(=O)Nc2cccc(C(=O)Nc3cc(C(=O)Nc4ccc(S(=O)(=O)O)c5cc(S(=O)(=O)O)cc(S(=O)(=O)O)c45)ccc3C)c2)c1 [suramin]
- inhibitory activity on SARS-CoV-2-RBD–hACE2 binding (in words) [2]: neither chloroquine nor suramin showed inhibitory activity; also recorded: no activity

Compound: erythrosine B
- activity in screening for inhibitors of SARS-CoV-2 RBD binding [2]: strongest activity
- IC50 [2]: 0.4 µM

Compound: Nc1c(N=Nc2ccc([N+](=O)[O-])cc2)c(S(=O)(=O)[O-])cc2cc(S(=O)(=O)[O-])c(N=Nc3ccccc3)c(O)c12.[Na+].[Na+] [naphthol blue black]
- inhibitory activity on SARS-CoV-2-RBD–hACE2 binding (in words) [2]: no inhibitory activity

Compound: CN1CCN(c2ccc(CNC(=O)c3ccno3)cc2)CC1 [SSAA09E2]
- activities of previously identified candidates [4]: 3.1 µM

Compound: OC(COc1cccc(OCC(O)CN2CCCCC2)c1)CN1CCCCC1 (stereo not shown) [VE607]
- activities of previously identified candidates [4]: 1.6 µM

Compound: O=C(Nc1ccc(-c2ccc(C(=O)Nc3cccc4cccc(S(=O)(=O)O)c34)cc2)cc1)c1ccc([N+](=O)[O-])cc1 [DRI-C21041]
- effect on viability of THP-1 human cells [5]: did not have significant effects

Compound: Nc1ccc(N=Nc2ccc(-c3ccc(N=Nc4c(S(=O)(=O)O)cc5cc(S(=O)(=O)O)c(N=Nc6ccccc6)c(O)c5c4N)cc3)cc2)c(N)c1 [chlorazol black]
- IC50 [2]: 2.57 µM

Compound: CCOc1ccc(N=Nc2ccc(-c3ccc(N=Nc4c(O)ccc5cc(S(=O)(=O)O)cc(S(=O)(=O)O)c45)c(C)c3)cc2C)cc1 [calcomine scarlet 3B]
- IC50 [2]: 4.25 µM

Compound: O=C([O-])c1c(Cl)c(Cl)c(Cl)c(Cl)c1-c1c2cc(I)c(=O)c(I)c-2oc2c(I)c([O-])c(I)cc12.[Na+].[Na+] [rose Bengal]
- activity in screening for inhibitors of SARS-CoV-2 RBD binding [2]: strongest activity

Compound: O=S(=O)([O-])c1ccc(N=Nc2c(O)ccc3cc(S(=O)(=O)[O-])ccc23)cc1.[Na+].[Na+] [sunset yellow FCF]
- inhibitory activity on SARS-CoV-2-RBD–hACE2 binding (in words) [2]: no inhibitory activity

Compound: O=C([O-])c1c(Cl)c(Cl)c(Cl)c(Cl)c1-c1c2cc(Br)c(=O)c(Br)c-2oc2c(Br)c([O-])c(Br)cc12.[Na+].[Na+] [phloxine B]
- activity in screening for inhibitors of SARS-CoV-2 RBD binding [2]: strongest activity

Compound: CCN(CC)CCCC(C)Nc1ccnc2cc(Cl)ccc12 (stereo not shown) [chloroquine]
- cytotoxicity (MTS) [6]: noticeable cytotoxicity
